Results taken from US7201899B2, “Materials and methods for management of hyperacute rejection in human xenotransplantation” (BresaGen Limited, priority 1994, dated 2007).

System: porcine cells (PAE's and PK1's)
Experiment: Complement-mediated lysis of porcine cells (51CR release and LDH release assays)
Type: cell-based
Settings: effective sugar concentrations covered about 10 mM
Experimental: The ability of human serum to cause the lysis of porcine cells was examined using both pig epithelial (PK1) and aortic endothelial (PAE's) cells, the isolation and culture of which is described in Example 2. Cell lysis was determined using either the ^51Chromium release assay as described by Cerottini and Brunner, Nature New Biol. 237:272, 1972 or the Cytotox LDH release assay according to the manufacturer's instructions (Promega, USA).
A. ^51CR Release Assay • 1. Preparation of Cells: • a) Trypsinize a confluent flask of cells. On average, approximately 3×10^6 PAE's and approximately 3×10^7 PK1 cells are obtained per 10 ml flask. About 1×10^5 cells are required for each well in the 5CR Release Assay. • b) Wash cells […] in 10 ml RPMI (no FCS); spin 1200 rpm for 5 min. • c) Resuspend cells in 100 μl RPMI (with 10% heat-inactivated FCS; see below). • 2. […]

O=C[C@H](O)[C@@H](O)[C@H](O)[C@H](O)CO[C@H]1O[C@H](CO)[C@H](O)[C@H](O)[C@H]1O [Melibiose, 6-O-α-D-galactopyranosyl-D-glucose]
protection of porcine cells from complement-induced lysis: protects the porcine cells from lysis
